Data set [1] relates to LPS induced airway inflammation in mice. Put plainly: First animal study: LPS-induced airway inflammation in mice, analysis of leukocytes in BALF. The data set is classed as in vivo, C57BL/6 mice. Here is the method:
C57BL/6 mice were purchased from Bomholtgaard, Ry, Denmark. Animals were fed with standard chow and water ad libitum and allowed to acclimatize for at least 7 days in an accredited animal facility before use. In all experiments female mice of ages between 9-11 weeks were used. All experiments were approved by the local ethical committee for animal experiments in Umea, Sweden.
Bacterial endotoxin, LPS (Escherichia coli 0128:B12, Sigma, St. Louis, Mo.) was administered to anaesthetised mice (enflurane) by tracheal instillation in a total volume of 50 μl in a concentration of 5 μg. Control mice were given solvent alone (endotoxin-free distilled water). Through previous experiments the optimum concentration of LPS was determined to be 5 μg.
The mice were sacrificed by cervical dislocation 20 h after LPS instillation and their tracheae was cannulated with polyethylene tubing. Bronchoalveolar 20 lavage (BAL) was performed using 1-ml aliquots of ice-cold Hanks balanced salt solution to a recovered volume of 4 ml. Total number of leucocytes in bronchoalveolar lavage fluid (BALF) was counted using a Bürker chamber and trypan blue solution. Differential cell counts were determined on duplicate cytocentrifuged preparations stained with May-Grünewald Gemisa. Three 25 hundred cells were counted from each slide and the percentage of neutrophils determined.
Mice were treated with an experimental oligonucleotide (SEQ.ID.NO 3, in concentrations of 25 μg, 100 μg or 150 μg. The oligonucleotide was administrated by tracheal instillation to anaesthetised mice in a total volume of 50 μl 18 h prior to instillation of 5 μg LPS. Control mice received 50 μl endotoxin-free distilled water.
To compare the effect of the oligonucleotide to conventional treatment with anti-inflammatory corticosteroids, one group of mice received dexamethasone (Sigma St Louis, Mo.). Dexamethasone (10 mg/kg body weight) dissolved in PBS was 6(12) injected intraperitoneally (i.p) into mice 1 h prior LPS exposure. […]
The results are expressed as mean+standard error of the mean (SEM). […]

Data set [2] has the same test system. Kind of data set: Second LPS induced asthma study in mice, BALF cell counts. The data set is classed as in vivo. The settings on record: single dose 150 ug tracheal instillation 18 h prior to LPS; BALF 20 h; p=0.005. Here is the method:
As with example 2, aim of the study was to examine the pharmaceutical effects of SEQ. ID. NO. 3 using airway inflammation as disease endpoint, and to compare the efficacy with that of corticosteroids. This study included larger numbers of animals per group to increases statistical significance. The induction of LPS induced asthma and the protocol of analyses was conducted as described in example 2.
Briefly, mice were treated with an SEQ.ID.NO 3 (150 μg/animal) administered by tracheal instillation 18 h prior to challenge with 5 μg LPS. One group of mice represented healthy untreated individuals. Control mice were given solvent only (H2O) and LPS. One group received dexamethasone (5 mg/kg) one hour before LPS instillation and one group were given a combination treatment. Analysis of BALF was performed 20 hours after the last treatment. Total number of cells in BALF and number of neutrophils is shown. Data is expressed as mean±SD. ***=p<0.001 and **=p<0.01, in treated groups vs the control group (one-way ANOVA and Bonferroni post hoc test). Calculations were performed by SPSS software (12.0). n=6 in all groups.

Data set [3] relates to murine spleen cells. Kind of data set: Induction of IL-10 from murine spleen cells (ELISpot). The format is cell-based. The note with it: mouse splenocytes, 48 hours incubation. Here is the method: (§1) The spleen was excised from a test animal. A single cell suspension was prepared using a nylon cell strainer (100 μm). The cells were washed once in complete RPMI medium at 1200 rpm for 7-10 minutes, whereupon the supernatant was poured off and the cells resuspended. 1 ml of “red blood cell lysing buffer” was added, and the mixture incubated for 1-2 minutes at RT. 5 ml of complete RPMI was added and the mixture centrifuged as above (C2).
(§2) The supernatant was poured off, the pellet resuspended and another 5 ml of complete RPML added. The cells were counted by dilution in trypan blue, so that between 50-100 cells were counted in the area.
(§3) Approximately 500,000 mouse splenocyte cells per well were incubated for 48 hours in the presence of the different oligonucleotides at the concentrations indicated. Specifically, SEQ.ID.NO 3, SEQ.ID.NO 4, and SEQ.ID.NO 7. Following incubation the wells were developed according to the kit suppliers recommendations and the average number of positive spots per well were determined using a AID ELISpot reader system, (Strassberg Germany).
(§4) Elispot assays where performed according to the manufactures recommended guidelines (MabTech) and the plates were analyzed using an AID ELISpot reader system (Autoimmun Diagnostika GmbH, Strassberg, Germany).

For data set [4], the system named is murine spleen cells. Kind of data set: Induction of IFN-gamma from murine spleen cells (ELISpot). The format is cell-based. The note with it: mouse splenocytes, 48 hours incubation, FIG. 10. Here is the method: as §1, §2, §3
Regarding the production of IFN-gamma, mouse splenocytes were treated as described above, with the intention to monitor levels of IFN-gamma by Elispot asssy. Identical conditions and concentrations of oligonucleotides where used.
as §4

Data set [5] deals with LPS-induced airway inflammation in mice. Put plainly: Third LPS induced asthma study in mice, BALF cell counts. The format is in vivo. Here is the method:
As with examples 1 and 2, aim of the study was to examine the pharmaceutical effects of SEQ. ID. NO. 3 using airway inflammation as disease endpoint, and to compare the efficacy with that of corticosteroids. In addition, a number of control oligonucleotides were included being SEQ.ID.NO 4, and SEQ.ID.NO 7. The induction of LPS induced asthma and the protocol of analyses was conducted as described in Example 2.
Briefly, LPS-induced airway inflammation in mice was treated with SEQ.ID.NOs 3, 4 and 7 (150 μg/animal) administered by tracheal instillation 18 h prior to challenge with 5 μg LPS. The untreated group represents healthy individuals and mice in the control group were given solvent only (H2O+LPS). The control treatment of dexamethasone (5 mg/kg, i.p.) was given one hour before LPS instillation. Analysis of BAL fluid was performed 20 hours after LPS instillation. The total number of leukocytes and neutrophils in BAL fluid is shown. Data expressed as mean±SD (n=6). ***p<0.001, *p<0.05, using One-way ANOVA with Dunnett's post hoc corrections versus control group.

“Also recorded” adds a separate entry of the source.

As for “5′-G*A*A*ACAGATCGTCCAT*G*G*T-3′ (antisense GAAACAGATCGTCCATGGT; listed as DNA, chemistry not fully specified) [SEQ.ID.NO 3, (Mu p65)AS, CpG-containing ODN]”, the “reduction in the number of recovered neutrophils in BAL” value in data set [1] (150 μg by tracheal instillation 18 h prior to LPS, BALF 20 h after LPS) was “more than 50%”. The “anti-inflammatory effect compared with dexamethasone” value in data set [1] (150 μg intratracheal vs dexamethasone 10 mg/kg i.p. 1 h prior to LPS) is “at least as powerful as high-dose treatment with dexamethasone”. Also, the “neutrophils in BALF / neutrophilic response in the airways” value in data set [1] (25, 100 or 150 μg by tracheal instillation 18 h prior to 5 μg LPS, BALF 20 h after LPS) was “dose-dependent reduction; also recorded: significantly reduced neutrophilic response”. Also, the “reduction in BAL fluid cell number verses control” value in data set [2] is “approximately 50%”. Further, the “concentration at which IL-10 producing cells are first induced” value with murine spleen cells [3] came to 5 µM. The “induction of IL-10 (positive spots per well)” value in the data set with murine spleen cells [3] (FIG. 9) was “induce significant levels of IL-10”. For the same substance, the “induction of IFN-gamma compared to medium alone” value in the data set on murine spleen cells [4] is given as “capable of inducing significant levels of IFN-gamma”. The “influx of leukocytes in BALF compared to the control group” value in data set [5] (150 μg/animal, FIG. 7, significance if the non-responding control individual is excluded) is given as “significantly reduced inflammatory response”. Moreover, the “influx of neutrophils in BALF compared to the control group” value in data set [5] (150 μg/animal, FIG. 8, significance if the non-responding control individual is excluded) is reported as “significantly reduced inflammatory response”. Moreover, in data set [5] (oligonucleotides 150 μg/animal tracheal 18 h prior to LPS, dexamethasone 5 mg/kg i.p. 1 h before, FIG. 6), the “number of infiltrating inflammatory cells in the BAL fluid” value is recorded as “reduced numbers of infiltrating inflammatory cells”.
